{
  "source": "ChEMBL document CHEMBL1201862",
  "about": "“PubChem BioAssay data set” (2004)",
  "key": {"Protein RecA": {"target": "T1, Protein RecA (Mycobacterium tuberculosis, UniProt P9WHJ3)", "T1 sequence (P9WHJ3 whole entry)": "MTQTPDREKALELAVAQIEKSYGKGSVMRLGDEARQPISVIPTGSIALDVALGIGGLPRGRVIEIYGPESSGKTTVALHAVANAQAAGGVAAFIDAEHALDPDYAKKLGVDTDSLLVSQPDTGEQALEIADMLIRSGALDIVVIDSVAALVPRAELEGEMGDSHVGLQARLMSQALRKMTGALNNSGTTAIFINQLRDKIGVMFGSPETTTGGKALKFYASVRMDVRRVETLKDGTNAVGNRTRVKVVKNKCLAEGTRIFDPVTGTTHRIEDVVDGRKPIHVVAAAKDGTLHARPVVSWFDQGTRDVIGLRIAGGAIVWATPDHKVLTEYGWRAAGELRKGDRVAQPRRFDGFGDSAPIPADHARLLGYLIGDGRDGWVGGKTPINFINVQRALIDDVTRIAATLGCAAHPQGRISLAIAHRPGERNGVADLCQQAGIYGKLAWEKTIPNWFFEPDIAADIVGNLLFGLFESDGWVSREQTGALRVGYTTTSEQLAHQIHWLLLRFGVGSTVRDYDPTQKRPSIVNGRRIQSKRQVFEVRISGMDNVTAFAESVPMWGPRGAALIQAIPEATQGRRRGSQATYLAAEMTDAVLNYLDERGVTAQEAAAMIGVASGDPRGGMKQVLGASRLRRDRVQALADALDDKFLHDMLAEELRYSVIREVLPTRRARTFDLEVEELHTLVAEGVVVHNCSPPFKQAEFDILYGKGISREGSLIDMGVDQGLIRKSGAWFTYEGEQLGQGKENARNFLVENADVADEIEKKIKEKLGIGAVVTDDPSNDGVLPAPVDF", "assay": "Fluorescence Cell-Free Homogeneous Dose Retest to Identify Inhibitors of RecA-Intein Splicing Activity. [Related pubchem assays (depositor defined):AID2097, AID2223, AID489010, AID492950]", "assay_type": "functional"}, "ORF 73": {"target": "T2, ORF 73 (Human herpesvirus 8, UniProt O40947)", "T2 sequence (O40947 whole entry)": "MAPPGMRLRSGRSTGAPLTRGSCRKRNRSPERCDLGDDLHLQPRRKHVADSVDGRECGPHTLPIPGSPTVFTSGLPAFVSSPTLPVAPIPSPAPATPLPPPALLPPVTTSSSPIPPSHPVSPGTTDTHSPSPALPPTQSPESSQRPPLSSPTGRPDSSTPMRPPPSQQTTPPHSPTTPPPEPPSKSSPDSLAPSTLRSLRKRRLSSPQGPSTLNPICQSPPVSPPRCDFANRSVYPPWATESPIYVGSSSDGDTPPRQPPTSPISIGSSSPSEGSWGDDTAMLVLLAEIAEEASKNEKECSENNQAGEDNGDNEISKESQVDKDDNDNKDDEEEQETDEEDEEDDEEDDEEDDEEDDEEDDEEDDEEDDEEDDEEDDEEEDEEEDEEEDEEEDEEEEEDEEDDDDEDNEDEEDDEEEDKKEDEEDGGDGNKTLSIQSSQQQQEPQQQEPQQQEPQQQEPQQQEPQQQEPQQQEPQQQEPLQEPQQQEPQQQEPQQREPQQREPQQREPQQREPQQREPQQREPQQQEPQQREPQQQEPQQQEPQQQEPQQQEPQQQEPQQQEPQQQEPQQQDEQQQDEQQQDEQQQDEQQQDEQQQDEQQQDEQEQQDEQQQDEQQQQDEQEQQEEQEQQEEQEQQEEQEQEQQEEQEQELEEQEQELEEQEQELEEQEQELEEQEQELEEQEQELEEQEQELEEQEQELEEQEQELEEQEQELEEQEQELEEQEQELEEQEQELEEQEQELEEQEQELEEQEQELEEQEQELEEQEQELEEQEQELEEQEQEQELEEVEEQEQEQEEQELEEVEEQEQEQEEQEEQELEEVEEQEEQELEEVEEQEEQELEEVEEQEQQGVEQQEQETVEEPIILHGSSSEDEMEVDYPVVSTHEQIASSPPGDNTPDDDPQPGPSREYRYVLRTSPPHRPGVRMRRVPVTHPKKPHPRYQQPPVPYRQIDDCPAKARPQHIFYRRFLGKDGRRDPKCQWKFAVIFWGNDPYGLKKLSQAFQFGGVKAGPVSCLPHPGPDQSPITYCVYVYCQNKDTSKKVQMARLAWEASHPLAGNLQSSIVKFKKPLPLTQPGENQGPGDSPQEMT", "assay": "inhibitors of C-LANA binding to LBS DNA, dose response, biochemical, fluorescence polarization, cherry-picked samples (AID 504725);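 further: fluorescence polarization of a labeled DNA duplex reporting LANA DNA binding; potency is for inhibitors that block LANA binding to the DNA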", "design": "species or system Human gammaherpesvirus 8"}, "Cysteine protease ATG4B": {"target": "Cysteine protease ATG4B (Homo sapiens, UniProt Q9Y4P1)", "assay_type": "functional"}, "[1]": {"target": "Hepatocyte growth factor receptor (Homo sapiens, UniProt P08581)", "sequence (P08581 whole entry)": "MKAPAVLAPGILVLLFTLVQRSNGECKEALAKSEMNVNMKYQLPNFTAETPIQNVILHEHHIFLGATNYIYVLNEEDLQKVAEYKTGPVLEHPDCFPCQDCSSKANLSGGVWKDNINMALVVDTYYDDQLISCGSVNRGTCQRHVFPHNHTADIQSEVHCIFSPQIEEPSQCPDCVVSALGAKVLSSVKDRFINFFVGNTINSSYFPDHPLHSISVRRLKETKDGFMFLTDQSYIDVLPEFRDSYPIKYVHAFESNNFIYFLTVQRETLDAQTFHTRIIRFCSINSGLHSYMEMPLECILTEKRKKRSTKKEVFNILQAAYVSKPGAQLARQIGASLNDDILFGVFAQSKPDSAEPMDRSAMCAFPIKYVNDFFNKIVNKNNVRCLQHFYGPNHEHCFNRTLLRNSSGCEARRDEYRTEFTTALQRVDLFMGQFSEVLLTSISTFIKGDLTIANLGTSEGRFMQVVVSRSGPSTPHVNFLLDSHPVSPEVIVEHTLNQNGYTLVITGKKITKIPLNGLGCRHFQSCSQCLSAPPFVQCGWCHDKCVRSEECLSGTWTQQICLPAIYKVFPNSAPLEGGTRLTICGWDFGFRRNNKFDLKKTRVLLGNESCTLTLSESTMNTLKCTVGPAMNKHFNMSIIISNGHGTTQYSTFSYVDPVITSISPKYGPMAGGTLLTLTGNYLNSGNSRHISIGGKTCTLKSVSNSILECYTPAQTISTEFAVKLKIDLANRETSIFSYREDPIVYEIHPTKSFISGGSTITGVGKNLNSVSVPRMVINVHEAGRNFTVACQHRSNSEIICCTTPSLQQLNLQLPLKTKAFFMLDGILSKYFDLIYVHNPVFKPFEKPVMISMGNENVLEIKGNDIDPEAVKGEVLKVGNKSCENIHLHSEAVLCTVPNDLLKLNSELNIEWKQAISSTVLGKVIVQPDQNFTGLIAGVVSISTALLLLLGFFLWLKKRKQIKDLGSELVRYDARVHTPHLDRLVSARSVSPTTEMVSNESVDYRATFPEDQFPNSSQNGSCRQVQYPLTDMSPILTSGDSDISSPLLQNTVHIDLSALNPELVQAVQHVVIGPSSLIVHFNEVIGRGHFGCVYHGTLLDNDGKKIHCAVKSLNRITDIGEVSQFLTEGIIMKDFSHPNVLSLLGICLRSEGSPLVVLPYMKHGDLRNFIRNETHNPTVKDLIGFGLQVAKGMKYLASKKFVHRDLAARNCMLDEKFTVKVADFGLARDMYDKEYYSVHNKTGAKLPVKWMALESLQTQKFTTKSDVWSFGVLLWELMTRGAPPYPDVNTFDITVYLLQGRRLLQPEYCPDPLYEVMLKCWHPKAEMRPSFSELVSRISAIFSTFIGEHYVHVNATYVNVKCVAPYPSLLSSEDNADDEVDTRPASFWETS", "assay_type": "functional"}, "[2]": {"target": "Serine/threonine-protein kinase Nek2 (Homo sapiens, UniProt P51955)", "sequence (P51955 whole entry)": "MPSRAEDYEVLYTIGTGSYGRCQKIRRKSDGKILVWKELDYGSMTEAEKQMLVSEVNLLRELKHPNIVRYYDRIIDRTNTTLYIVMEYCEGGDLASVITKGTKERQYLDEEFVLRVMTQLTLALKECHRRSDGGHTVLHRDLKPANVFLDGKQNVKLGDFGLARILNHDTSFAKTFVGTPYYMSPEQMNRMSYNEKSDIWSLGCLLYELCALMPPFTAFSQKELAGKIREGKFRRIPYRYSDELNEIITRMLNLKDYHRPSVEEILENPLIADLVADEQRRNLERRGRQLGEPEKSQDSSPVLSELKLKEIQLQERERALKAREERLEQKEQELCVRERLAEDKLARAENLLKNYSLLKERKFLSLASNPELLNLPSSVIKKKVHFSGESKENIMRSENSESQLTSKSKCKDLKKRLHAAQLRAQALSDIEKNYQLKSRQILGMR", "assay_type": "functional"}, "[3]": {"target": "Tyrosine-protein kinase ITK/TSK (Homo sapiens, UniProt Q08881)", "assay_type": "functional"}, "[4]": {"target": "Protein kinase C zeta type (Homo sapiens, UniProt Q05513)", "sequence (Q05513 whole entry)": "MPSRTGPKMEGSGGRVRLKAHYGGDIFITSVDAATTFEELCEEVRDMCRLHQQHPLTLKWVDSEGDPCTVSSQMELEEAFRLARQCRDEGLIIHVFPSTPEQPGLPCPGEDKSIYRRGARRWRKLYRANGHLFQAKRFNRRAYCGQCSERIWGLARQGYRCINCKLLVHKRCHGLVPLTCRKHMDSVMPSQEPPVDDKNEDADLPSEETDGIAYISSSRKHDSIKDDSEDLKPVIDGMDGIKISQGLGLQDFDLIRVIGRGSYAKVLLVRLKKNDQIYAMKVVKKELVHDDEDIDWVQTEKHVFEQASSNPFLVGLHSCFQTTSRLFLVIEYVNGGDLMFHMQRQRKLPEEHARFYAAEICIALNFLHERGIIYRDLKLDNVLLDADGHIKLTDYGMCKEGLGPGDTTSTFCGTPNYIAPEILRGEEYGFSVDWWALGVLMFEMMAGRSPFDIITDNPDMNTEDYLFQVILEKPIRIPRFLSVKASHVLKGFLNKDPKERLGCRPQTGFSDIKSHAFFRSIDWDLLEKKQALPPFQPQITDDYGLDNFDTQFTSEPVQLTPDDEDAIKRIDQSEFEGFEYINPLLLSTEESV", "assay_type": "functional"}, "[5]": {"target": "Death-associated protein kinase 3 (Homo sapiens, UniProt O43293)", "sequence (O43293 whole entry)": "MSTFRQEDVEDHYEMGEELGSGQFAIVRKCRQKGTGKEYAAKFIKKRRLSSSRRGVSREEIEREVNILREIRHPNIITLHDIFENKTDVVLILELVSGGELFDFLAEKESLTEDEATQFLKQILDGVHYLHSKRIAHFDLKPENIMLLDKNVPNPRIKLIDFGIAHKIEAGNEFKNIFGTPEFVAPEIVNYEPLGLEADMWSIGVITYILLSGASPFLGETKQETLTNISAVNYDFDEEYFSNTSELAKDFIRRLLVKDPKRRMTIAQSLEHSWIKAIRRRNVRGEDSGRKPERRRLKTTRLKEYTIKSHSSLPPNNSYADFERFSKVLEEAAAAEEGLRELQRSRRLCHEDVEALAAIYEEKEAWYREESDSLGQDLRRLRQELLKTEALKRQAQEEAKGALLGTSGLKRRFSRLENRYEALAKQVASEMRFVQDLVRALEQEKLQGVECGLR", "assay_type": "functional"}, "[6]": {"target": "Macrophage colony-stimulating factor 1 receptor (Homo sapiens, UniProt P07333)", "sequence (P07333 whole entry)": "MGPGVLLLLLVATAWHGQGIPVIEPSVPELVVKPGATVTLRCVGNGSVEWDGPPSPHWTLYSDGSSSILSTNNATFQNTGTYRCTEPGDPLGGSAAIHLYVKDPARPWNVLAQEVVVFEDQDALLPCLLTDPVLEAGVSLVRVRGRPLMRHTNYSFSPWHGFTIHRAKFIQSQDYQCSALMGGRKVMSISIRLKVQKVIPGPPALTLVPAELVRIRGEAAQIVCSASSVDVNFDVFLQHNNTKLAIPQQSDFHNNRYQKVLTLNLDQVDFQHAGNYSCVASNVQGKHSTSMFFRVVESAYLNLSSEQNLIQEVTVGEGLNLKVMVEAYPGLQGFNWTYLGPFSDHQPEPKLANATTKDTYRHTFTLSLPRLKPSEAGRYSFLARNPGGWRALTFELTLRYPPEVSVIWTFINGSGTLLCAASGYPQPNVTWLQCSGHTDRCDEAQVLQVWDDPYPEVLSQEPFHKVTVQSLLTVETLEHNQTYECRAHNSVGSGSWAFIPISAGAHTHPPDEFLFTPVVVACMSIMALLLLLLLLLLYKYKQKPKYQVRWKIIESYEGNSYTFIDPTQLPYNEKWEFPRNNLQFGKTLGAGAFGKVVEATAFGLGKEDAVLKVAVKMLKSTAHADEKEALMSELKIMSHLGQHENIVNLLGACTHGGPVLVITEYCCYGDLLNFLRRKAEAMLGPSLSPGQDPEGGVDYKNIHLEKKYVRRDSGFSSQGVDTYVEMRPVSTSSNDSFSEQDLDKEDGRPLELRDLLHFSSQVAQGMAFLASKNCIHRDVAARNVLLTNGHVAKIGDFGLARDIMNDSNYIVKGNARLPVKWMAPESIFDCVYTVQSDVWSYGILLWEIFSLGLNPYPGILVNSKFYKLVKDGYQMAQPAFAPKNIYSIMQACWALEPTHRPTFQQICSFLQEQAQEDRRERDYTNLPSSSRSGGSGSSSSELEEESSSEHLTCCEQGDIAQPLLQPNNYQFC", "assay_type": "functional"}, "[7]": {"target": "Serine/threonine-protein kinase D2 (Homo sapiens, UniProt Q9BZL6)", "assay_type": "functional"}, "[8]": {"target": "RAC-alpha serine/threonine-protein kinase (Homo sapiens, UniProt P31749)", "assay_type": "functional"}, "[9]": {"target": "Protein kinase C gamma type (Homo sapiens, UniProt P05129)", "assay_type": "functional"}, "[10]": {"target": "Fibroblast growth factor receptor 3 (Homo sapiens, UniProt P22607)", "sequence (P22607 whole entry)": "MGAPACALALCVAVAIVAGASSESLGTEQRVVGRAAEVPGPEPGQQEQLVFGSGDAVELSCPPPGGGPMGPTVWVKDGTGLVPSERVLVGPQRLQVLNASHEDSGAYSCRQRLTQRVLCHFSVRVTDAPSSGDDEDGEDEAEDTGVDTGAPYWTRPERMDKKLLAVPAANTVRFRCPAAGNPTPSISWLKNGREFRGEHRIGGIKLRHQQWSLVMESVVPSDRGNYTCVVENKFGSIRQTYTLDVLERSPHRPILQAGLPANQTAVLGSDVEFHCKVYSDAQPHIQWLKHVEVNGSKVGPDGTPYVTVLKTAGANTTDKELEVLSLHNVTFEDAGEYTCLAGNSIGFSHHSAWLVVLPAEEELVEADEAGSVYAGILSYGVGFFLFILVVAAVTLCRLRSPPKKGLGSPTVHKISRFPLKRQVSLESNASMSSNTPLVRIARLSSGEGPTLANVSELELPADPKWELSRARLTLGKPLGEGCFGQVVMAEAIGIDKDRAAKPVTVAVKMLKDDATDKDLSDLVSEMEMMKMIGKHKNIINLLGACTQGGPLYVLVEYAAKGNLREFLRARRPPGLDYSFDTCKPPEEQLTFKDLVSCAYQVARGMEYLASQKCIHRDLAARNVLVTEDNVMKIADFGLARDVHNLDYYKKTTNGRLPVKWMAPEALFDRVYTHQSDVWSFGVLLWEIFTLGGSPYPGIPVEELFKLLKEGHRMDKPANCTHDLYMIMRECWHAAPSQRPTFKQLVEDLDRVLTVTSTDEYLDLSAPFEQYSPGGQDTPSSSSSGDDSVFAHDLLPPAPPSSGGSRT", "assay_type": "functional"}, "[11]": {"target": "Receptor tyrosine-protein kinase erbB-4 (Homo sapiens, UniProt Q15303)", "assay_type": "functional"}, "[12]": {"target": "cAMP-dependent protein kinase catalytic subunit alpha (Homo sapiens, UniProt P17612)", "assay_type": "functional"}, "[13]": {"target": "cAMP-dependent protein kinase catalytic subunit PRKX (Homo sapiens, UniProt P51817)", "assay_type": "functional"}, "[14]": {"target": "Cyclin-dependent kinase 9 (Homo sapiens, UniProt P50750)", "assay_type": "functional"}, "[15]": {"target": "Casein kinase I isoform alpha (Homo sapiens, UniProt P48729)", "sequence (P48729 whole entry, canonical isoform)": "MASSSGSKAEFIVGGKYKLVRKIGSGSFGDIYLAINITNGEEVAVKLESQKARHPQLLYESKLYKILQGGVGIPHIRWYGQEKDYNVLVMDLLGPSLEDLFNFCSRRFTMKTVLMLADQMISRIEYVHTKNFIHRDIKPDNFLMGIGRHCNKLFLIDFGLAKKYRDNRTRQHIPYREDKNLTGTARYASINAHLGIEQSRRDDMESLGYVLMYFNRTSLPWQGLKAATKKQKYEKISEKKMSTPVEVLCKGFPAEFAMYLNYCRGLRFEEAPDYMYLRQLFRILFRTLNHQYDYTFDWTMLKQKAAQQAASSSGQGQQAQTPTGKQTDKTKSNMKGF", "assay_type": "functional"}, "[16]": {"target": "Serine/threonine-protein kinase TAO1 (Homo sapiens, UniProt Q7L7X3)", "assay_type": "functional"}},
  "note": "Calls of active or inactive are those of the source.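 Wherever IC50 is given: Fluorescence-based dose-response confirmation assay measuring inhibition of ATG4B activity.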",
  "data": [
    {"smiles": "O=C1C=C(NCc2ccccc2)c2ccccc2C1=O", "values": [
      {"measurement": "EC50", "setting": "Protein RecA", "value": "0.774 µM (active)"}
    ]},
    {"smiles": "O=C(O)c1[nH]c2ccccc2c1C(c1cc(Cl)cc([N+](=O)[O-])c1O)c1c(C(=O)O)[nH]c2ccccc12", "values": [
      {"measurement": "AC50", "setting": "ORF 73", "value": "88.1 µM (active)"},
      {"measurement": "IC50", "setting": "Cysteine protease ATG4B", "value": "3.46 µM (active)"}
    ]},
    {"smiles": "CCOC(=O)c1cn(-c2ccc(O)cc2C)c2cc(-c3ccncc3)ccc2c1=O", "values": [
      {"measurement": "Ki", "setting": "[1]", "value": "> 3.16 µM (inactive)"},
      {"measurement": "Ki", "setting": "[2]", "value": "> 10 µM (inactive)"},
      {"measurement": "Ki", "setting": "[3]", "value": "> 1.58 µM (inactive)"},
      {"measurement": "Ki", "setting": "[4]", "value": "> 7.94 µM (inactive)"},
      {"measurement": "Ki", "setting": "[5]", "value": "> 1.26 µM (inactive)"},
      {"measurement": "Ki", "setting": "[6]", "value": "> 2.51 µM (inactive)"},
      {"measurement": "Ki", "setting": "[7]", "value": "> 10 µM (inactive)"},
      {"measurement": "Ki", "setting": "[8]", "value": "> 7.94 µM (inactive)"},
      {"measurement": "Ki", "setting": "[9]", "value": "> 7.94 µM (inactive)"},
      {"measurement": "Ki", "setting": "[10]", "value": "> 2 µM (inactive)"},
      {"measurement": "Ki", "setting": "[11]", "value": "> 3.98 µM (inactive)"},
      {"measurement": "Ki", "setting": "[12]", "value": "1.26 µM (active)"}
    ]},
    {"smiles": "Cc1cc(=O)[nH]nc1-c1ccc(NC(=O)Nc2cc(C(F)(F)F)ccc2F)c(Cl)c1", "values": [
      {"measurement": "Ki", "setting": "[13]", "value": "> 3.16 µM (inactive)"},
      {"measurement": "Ki", "setting": "[14]", "value": "> 1.58 µM (inactive)"},
      {"measurement": "Ki", "setting": "[1]", "value": "> 2.51 µM (inactive)"},
      {"measurement": "Ki", "setting": "[2]", "value": "> 3.16 µM (inactive)"},
      {"measurement": "Ki", "setting": "[5]", "value": "> 5.01 µM (inactive)"},
      {"measurement": "Ki", "setting": "[15]", "value": "> 3.98 µM (inactive)"},
      {"measurement": "Ki", "setting": "[6]", "value": "> 2.51 µM (inactive)"},
      {"measurement": "Ki", "setting": "[16]", "value": "> 6.31 µM (inactive)"},
      {"measurement": "Ki", "setting": "[12]", "value": "> 1.26 µM (inactive)"}
    ]}
  ]
}
